In ChEMBL document CHEMBL1139236, “Introduction of non-natural amino acid residues into the substrate-specific P1 position of trypsin inhibitor SFTI-1 yields potent chymotrypsin and cathepsin G inhibitors” (Bioorg Med Chem, 2009):
pKi: −log10 of the molar value. Bridge positions count the residues as written; N and C are the ends. Square brackets hold non-standard residues; d marks the D form. Peptide text beside a SMILES is read from it. Phe(4-NO2) = N[C@@H](Cc1ccc([N+](=O)[O-])cc1)C(=O)O; Phe(4-guanidino) = N=C(N)Nc1ccc(C[C@H](N)C(=O)O)cc1; Phe(4-NH2) = Nc1ccc(C[C@H](N)C(=O)O)cc1; Phe(4-F) = N[C@@H](Cc1ccc(F)cc1)C(=O)O; Phe(4-Me) = Cc1ccc(C[C@H](N)C(=O)O)cc1; 4Pal = N[C@@H](Cc1ccncc1)C(=O)O

Columns and labels:
[1] = target: T1, Cathepsin G (Homo sapiens) (UniProt P08311); experiment: Inhibition of cathepsin G assessed as association equilibrium constant relative to [Phe5]SFTI-1
T1 sequence (whole entry): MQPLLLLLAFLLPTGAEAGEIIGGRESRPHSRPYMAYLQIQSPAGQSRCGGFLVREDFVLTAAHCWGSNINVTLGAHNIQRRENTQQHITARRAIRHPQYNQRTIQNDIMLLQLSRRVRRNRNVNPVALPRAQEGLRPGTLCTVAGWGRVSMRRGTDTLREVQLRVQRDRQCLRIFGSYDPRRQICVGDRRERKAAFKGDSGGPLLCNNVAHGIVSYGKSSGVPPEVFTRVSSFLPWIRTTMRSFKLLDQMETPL

[2] = target: Chymotrypsinogen A (Bos taurus) (UniProt P00766); experiment: Inhibition of bovine alpha-chymotrypsin assessed as association equilibrium constant relative to [Phe5]SFTI-1
Serum = experiment: Stability in human serum at 2 mg/mL up to 24 hrs; assay type: ADME, cell-free
[3] = target: Chymotrypsinogen A (Bos taurus) (UniProt P00766); experiment: Inhibition of bovine alpha-chymotrypsin assessed as association equilibrium constant
[4] = target: T1, Cathepsin G (Homo sapiens); experiment: Inhibition of cathepsin G assessed as association equilibrium constant
Cathepsin G = target: T2, Cathepsin G (Homo sapiens, UniProt P08311); experiment: Inhibition of cathepsin G
T2 sequence (P08311 whole entry): T1 sequence (whole entry)

Row | SMILES | Ratio [1] | Ratio [2] | Stability (Serum) | Ka [3] | Ka [4] | pKi (Cathepsin G)
1 | CC[C@H](C)[C@@H]1NC(=O)[C@@H]2CCCN2C(=O)[C@@H]2CCCN2C(=O)[C@H]([C@@H](C)CC)NC(=O)[C@H](CO)NC(=O)[C@H](CCCCN)NC(=O)[C@H]([C@@H](C)O)NC(=O)[C@@H](NC(=O)[C@H](CCCNC(=N)N)NC(=O)CN)CSSC[C@@H](C(=O)N[C@@H](Cc2ccccc2)C(=O)N2CCC[C@H]2C(=O)N[C@@H](CC(=O)O)C(=O)O)NC1=O |  |  |  | 5 ×10⁶ /M |  | 
2 | CC[C@H](C)[C@@H]1NC(=O)[C@@H]2CCCN2C(=O)[C@@H]2CCCN2C(=O)[C@H]([C@@H](C)CC)NC(=O)[C@H](CO)NC(=O)[C@H](Cc2ccccc2)NC(=O)[C@H]([C@@H](C)O)NC(=O)[C@@H](NC(=O)[C@H](CCCNC(=N)N)NC(=O)CN)CSSC[C@@H](C(=O)N[C@@H](Cc2ccccc2)C(=O)N2CCC[C@H]2C(=O)N[C@@H](CC(=O)O)C(=O)O)NC1=O (H-GRCTFSIPPICFPD-OH; disulfide 3-11) |  |  |  | 2 ×10⁹ /M | 3.7 ×10⁶ /M | 
3 | CC[C@H](C)[C@@H]1NC(=O)[C@@H]2CCCN2C(=O)[C@@H]2CCCN2C(=O)[C@H]([C@@H](C)CC)NC(=O)[C@H](CO)NC(=O)[C@H](Cc2ccncc2)NC(=O)[C@H]([C@@H](C)O)NC(=O)[C@@H](NC(=O)[C@H](CCCNC(=N)N)NC(=O)CN)CSSC[C@@H](C(=O)N[C@@H](Cc2ccccc2)C(=O)N2CCC[C@H]2C(=O)N[C@@H](CC(=O)O)C(=O)O)NC1=O (H-GRCT[4Pal]SIPPICFPD-OH; disulfide 3-11) |  | 5.5 |  | 1.1 ×10¹⁰ /M | < 1 ×10⁵ /M | 
4 | CC[C@H](C)[C@@H]1NC(=O)[C@@H]2CCCN2C(=O)[C@@H]2CCCN2C(=O)[C@H]([C@@H](C)CC)NC(=O)[C@H](CO)NC(=O)[C@H](CCCCN)NC(=O)[C@H]([C@@H](C)O)NC(=O)[C@@H]2CSSC[C@H](NC1=O)C(=O)N[C@@H](Cc1ccccc1)C(=O)N1CCC[C@H]1C(=O)N[C@@H](CC(=O)O)C(=O)NCC(=O)N[C@@H](CCCNC(=N)N)C(=O)N2 | 1.54 |  |  | 5.2 ×10⁶ /M | 5.7 ×10⁶ /M | 9.82

Other lines, results leading:

Row | Ratio [1] | Ratio [2] | Stability (Serum) | Ka [3] | Ka [4] | pKi (Cathepsin G) | SMILES
5 | 2.19 | 0.09 | Stable | 1.8 ×10⁸ /M | 8.1 ×10⁷ /M |  | CC[C@H](C)[C@@H]1NC(=O)[C@@H]2CCCN2C(=O)[C@@H]2CCCN2C(=O)[C@H]([C@@H](C)CC)NC(=O)[C@H](CO)NC(=O)[C@H](Cc2ccc(NC(=N)N)cc2)NC(=O)[C@H]([C@@H](C)O)NC(=O)[C@@H](NC(=O)[C@H](CCCNC(=N)N)NC(=O)CN)CSSC[C@@H](C(=O)N[C@@H](Cc2ccccc2)C(=O)N2CCC[C@H]2C(=O)N[C@@H](CC(=O)O)C(=O)O)NC1=O (H-GRCT[Phe(4-guanidino)]SIPPICFPD-OH; disulfide 3-11)
6 | 0.97 | 9.5 |  | 1.9 ×10¹⁰ /M | 3.6 ×10⁶ /M |  | CC[C@H](C)[C@@H]1NC(=O)[C@@H]2CCCN2C(=O)[C@@H]2CCCN2C(=O)[C@H]([C@@H](C)CC)NC(=O)[C@H](CO)NC(=O)[C@H](Cc2ccc(N)cc2)NC(=O)[C@H]([C@@H](C)O)NC(=O)[C@@H](NC(=O)[C@H](CCCNC(=N)N)NC(=O)CN)CSSC[C@@H](C(=O)N[C@@H](Cc2ccccc2)C(=O)N2CCC[C@H]2C(=O)N[C@@H](CC(=O)O)C(=O)O)NC1=O (H-GRCT[Phe(4-NH2)]SIPPICFPD-OH; disulfide 3-11)
7 |  | 9.5 |  | 1.9 ×10¹⁰ /M | < 1 ×10⁵ /M |  | CC[C@H](C)[C@@H]1NC(=O)[C@@H]2CCCN2C(=O)[C@@H]2CCCN2C(=O)[C@H]([C@@H](C)CC)NC(=O)[C@H](CO)NC(=O)[C@H](Cc2ccc(O)cc2)NC(=O)[C@H]([C@@H](C)O)NC(=O)[C@@H](NC(=O)[C@H](CCCNC(=N)N)NC(=O)CN)CSSC[C@@H](C(=O)N[C@@H](Cc2ccccc2)C(=O)N2CCC[C@H]2C(=O)N[C@@H](CC(=O)O)C(=O)O)NC1=O (H-GRCTYSIPPICFPD-OH; disulfide 3-11)
8 | 0.76 | 12.5 |  | 2.5 ×10¹⁰ /M | 2.8 ×10⁶ /M |  | CC[C@H](C)[C@@H]1NC(=O)[C@@H]2CCCN2C(=O)[C@@H]2CCCN2C(=O)[C@H]([C@@H](C)CC)NC(=O)[C@H](CO)NC(=O)[C@H](Cc2ccc(C)cc2)NC(=O)[C@H]([C@@H](C)O)NC(=O)[C@@H](NC(=O)[C@H](CCCNC(=N)N)NC(=O)CN)CSSC[C@@H](C(=O)N[C@@H](Cc2ccccc2)C(=O)N2CCC[C@H]2C(=O)N[C@@H](CC(=O)O)C(=O)O)NC1=O (H-GRCT[Phe(4-Me)]SIPPICFPD-OH; disulfide 3-11)
9 | 1.02 | 15 |  | 3 ×10¹⁰ /M | 3.8 ×10⁶ /M |  | CC[C@H](C)[C@@H]1NC(=O)[C@@H]2CCCN2C(=O)[C@@H]2CCCN2C(=O)[C@H]([C@@H](C)CC)NC(=O)[C@H](CO)NC(=O)[C@H](Cc2ccc(F)cc2)NC(=O)[C@H]([C@@H](C)O)NC(=O)[C@@H](NC(=O)[C@H](CCCNC(=N)N)NC(=O)CN)CSSC[C@@H](C(=O)N[C@@H](Cc2ccccc2)C(=O)N2CCC[C@H]2C(=O)N[C@@H](CC(=O)O)C(=O)O)NC1=O (H-GRCT[Phe(4-F)]SIPPICFPD-OH; disulfide 3-11)
10 |  | 13 |  | 2.6 ×10¹⁰ /M | < 1 ×10⁵ /M |  | CC[C@H](C)[C@@H]1NC(=O)[C@@H]2CCCN2C(=O)[C@@H]2CCCN2C(=O)[C@H]([C@@H](C)CC)NC(=O)[C@H](CO)NC(=O)[C@H](Cc2ccc([N+](=O)[O-])cc2)NC(=O)[C@H]([C@@H](C)O)NC(=O)[C@@H](NC(=O)[C@H](CCCNC(=N)N)NC(=O)CN)CSSC[C@@H](C(=O)N[C@@H](Cc2ccccc2)C(=O)N2CCC[C@H]2C(=O)N[C@@H](CC(=O)O)C(=O)O)NC1=O (H-GRCT[Phe(4-NO2)]SIPPICFPD-OH; disulfide 3-11)
